# Measurements: EP4551202B1, “NAPHTHAZARIN DERIVATIVES FOR TREATMENT OF ONYCHOMYCOSIS” (Christian-Albrechts-Universität zu Kiel, priority 2022, dated 2024)
# Read-outs that look alike come from different tables or passages of the source.
# Columns and labels:
# [1] = Comparison test of antimycotic effect upon irradiation; type: cell-based
# [2] = Migration into hoof plate from lacquer, Raman spectroscopy of cross-sections; type: in vitro ADME, bovine; details: 5 days
# Procedure: As a further analysis, a bovine hoof plate, 2 mm thickness, was arranged on water-saturated cotton gauze, and pharmaceutical compound was deposited on the opposite surface of the hoof plate. This arrangement was incubated under static conditions at room temperature for 5 days. The pharmaceutical compound was used at 5 wt.-% in a preliminary formulation of 12.5 wt.-% Eudragit RL PO, 60 wt.-% ethanol, 15 wt.-% ethyl acetate, 5 wt.-% butyl acetate, 2.5 wt.-% triacetin, which formulation should mimic the Loceryl lacquer. For comparison, the topic antimycotics amorolfin in Loceryl lacquer and ciclopirox in Ciclopoli were used in parallel.
# After the incubation for 5 d, the lacquer compositions were carefully removed and cross-sections from the hoof plates were made. […] This pattern of measurement points, each at a depth greater by 10 µm, up to a depth of at least 100 µm, was used for Raman spectroscopy for presence of pharmaceutical compound.
# [3] = system: Trichophyton rubrum I/95 (patient isolates); test: Anti-mycotic activity assay from nail (infected nail model, cow horn membranes); details: for growth of T. rubrum in cow horn membrane: 15 µL/membrane; for diffusion of the compound into the supporting agar: from cow horn membrane, infected nail model
# Procedure: For testing the effect of the pharmaceutical compounds in a nail, compounds were applied as a solution of 5 mg/ml or 10 mg/ml in nitrocellulose-based cosmetic nail lacquer, diluted 1: 1 with ethyl acetate, onto cow horn membranes representing nail.
# Trichophyton rubrum I/95 (patient isolates) was cultivated for 1-3 weeks on GPY (0.1 % glucose, 0.05 % peptone, 0.01 yeast extract, 1.5 % agar) at 28°C. For the infected nail model, petri dishes with M186 agar (1% glucose, 0.5% peptone from soybeans, 0.3% yeast extract, 0.3% malt extract, 1.5 % agar, supplemented with 100 U/ml penicillin and […]) where inoculated with the pathogen using sterile cotton swabs. Afterwards autoclaved cow horn membranes (in DPBS-buffer solution, 100 µm thick, 8 mm in diameter) where put onto the agar (5 per petri dish) followed by incubation for 48 h at 29 °C. […] The formulations were applied to 15 µL/membrane to the cow horn membranes using an Eppendorf pipette. After incubation for another 24 h four membranes of each type (control, vehicle, 5 mg/ml or 10 mg/ml deoxyshikonin) were transferred onto fresh petri dishes with the surface to which the formulation was applied now facing the agar. […] Afterwards formulations were applied (15 µL/membrane) onto the untreated side of the membranes (facing upwards), they were allowed to dry and were irradiated again for 5 min (2x). The dishes were incubated for 24 h at 29 °C and irradiated again for 5 min (2x). After 7 days of incubation at 29 °C the dishes were evaluated. Anytime handling the compounds and the agar plates after application of the formulations the ambient light was turned off and a red-light LED was used to protect them from any activating light source.
# [4] = system: C. albicans; test: as above; type: cell-based
# [5] = system: Candida albicans, strain DSM 1386; test: Anti-mycotic activity assay in pathogen suspension (resazurin fluorescence); type: cell-based
# Procedure: (§1) For determining the IC50 of the anti-mycotic activity of compounds, the human pathogen Candida albicans, strain DSM 1386, or clinical isolates of Trichophyton rubrum obtained from patient samples were used.
# Candida albicans DSM 1386 was cultivated overnight in medium M186/3 (3.3 % glucose, 0.16 % peptone from soybeans, 0.1% yeast extract, 0.1 % malt extract). Test samples were added in triplicates to a 96-well plate for a final assay concentration of 10 µM and 100 µM of pharmaceutical compounds. 200 µl of the yeast was added to each well after diluting the overnight culture to an optical density (600 nm) of 0.03. […] Handling of the test compounds and well plates took place in a darkened room equipped with red-light LEDs to protect them from green light. Microplates were incubated for 5 h at 28 °C on a shaker at 200 rpm. Subsequently, 10 µl resazurin solution (0.3 mg/ml in phosphate buffer) was added to each well and the microplates were incubated again for 30 min before measuring fluorescence (560/590 nm) using a microplate reader (Tecan Infinite M200, Tecan, Männedorf, Switzerland). Nystatin was used as positive control.
# [6] = system: Trichophyton rubrum I/95 (patient isolate); test: Anti-mycotic activity assay in pathogen suspension (optical density at 600 nm); type: cell-based; details: light or radiation study, read-out: Tru IC50 with irradiation
# Procedure: as §1
# Trichophyton rubrum I/95 (patient isolate) was cultivated for 1 week on GPY (0.1% glucose, 0.05% petone, 0.01 yeast extract, 1.5% agar) at 28°C. A suspension of 5x10^4 spores/ml in M186 (1% glucose, 0.5% peptone from soybeans, 0.3% yeast extract, 0.3% malt extract) was prepared and added to each well of a microplate containing one of the pharmaceutical compounds, which were pipetted in triplicates for a final concentration of […] and 100 µM. The wells were irradiated using the custom-made light source with a peak wavelength of 519 nm. Handling of the test compounds and well plates took place in a darkened room equipped with a red-light LED to protect them from green light. After incubation for 72 h at 28 °C and 120 rpm the optical density at 600 nm was measured using the microplate reader Tecan Infinite M200.
# [7] = system: Trichophyton rubrum I/95 (patient isolate); test: as above; type: cell-based; details: light or radiation study; antimycotic activity against Trichophyton rubrum; without irradiation (dark); read-out: Tru IC50 without irradiation
# [8] = 5 wt.-% in preliminary Eudragit RL PO lacquer formulation, bovine hoof plate 2 mm, room temperature, one topical application
# [9] = with irradiation at 519 nm, 5 mg/ml or 10 mg/ml in diluted nitrocellulose-based nail lacquer, evaluated after 7 days
# [10] = without irradiation, compound in diluted nitrocellulose-based nail lacquer
# [11] = DSM1386, light or radiation study, antimycotic activity against Candida albicans, with irradiation, peak wavelength 519 nm, read-out: Ca IC50 with irradiation
# [12] = antimycotic activity against Trichophyton rubrum, with irradiation, peak wavelength 519 nm
# [13] = Candida albicans, DSM1386, light or radiation study, antimycotic activity against Candida albicans, with irradiation, peak wavelength 519 nm, read-out: Ca IC50 with irradiation
# [14] = antimycotic activity against Candida albicans, with irradiation, peak wavelength 519 nm, read-out: Ca IC50 with irradiation
structure (smiles),measurement,setting,value
"O=C1C=C(O)C(=O)c2ccccc21 [2-hydroxy-1,4-naphthochinone]",antimycotic effect upon irradiation,[1],essentially no antimycotic effect
NCC(=O)CCC(=O)O [5-amino laevulinic acid],depth of migration into the keratin cross-section,[2]; [8],30 µm
same,growth of T. rubrum in cow horn membrane,[3]; [9],did not suppress growth
same,growth of T. rubrum in cow horn membrane,[3]; [10],did not suppress growth
same,growth of C. albicans in cow horn membrane,[4]; with irradiation at 519 nm,did not suppress growth
same,growth of C. albicans in cow horn membrane,[4]; without irradiation,did not suppress growth
CC1=CC(=O)c2c(O)ccc(O)c2C1=O [BJ-18],IC50,[5]; [11],2340 ± 846 nM
same,IC50,"[5]; DSM1386, light or radiation study, antimycotic activity against Candida albicans, without irradiation (dark), read-out: Ca IC50 without irradiation",10900 ± 4080 nM
same,IC50,[6]; [12],87.6 ± 65.4 nM
CC(C)(C)C1=CC(=O)c2c(O)ccc(O)c2C1=O [BJ-19],IC50,[5]; [11],7650 ± 4480 nM
same,IC50,[6]; [12],244 ± 192 nM
CC1=C(C)C(=O)c2c(O)ccc(O)c2C1=O [BJ-27],IC50,[5]; [11],2750 ± 70 nM
same,IC50,[6]; [12],321 ± 212 nM
CC(C)C1=CC(=O)c2c(O)ccc(O)c2C1=O [BJ-28],IC50,[5]; [11],1040 ± 185 nM
same,IC50,[6]; [12],42.7 nM
CCC1=CC(=O)c2c(O)ccc(O)c2C1=O [BJ-34],IC50,[5]; [11],715 ± 209 nM
same,IC50,[6]; [12],24.2 ± 20.6 nM
CCCC1=CC(=O)c2c(O)ccc(O)c2C1=O [BJ-35],IC50,[5]; [11],599 ± 289 nM
same,IC50,[6]; [12],13 ± 12.2 nM
CCCCC1=CC(=O)c2c(O)ccc(O)c2C1=O [BJ-36],IC50,[5]; [11],556 ± 355 nM
same,IC50,[6]; [12],1 ± 0.3 nM
same,depth of migration into the keratin cross-section,"[2]; bovine, 5 wt.-%",more than 70 µm
same,diffusion of the compound into the supporting agar,[3],without diffusion of the compound into the supporting agar
same,growth of T. rubrum in cow horn membrane,[3]; [9],effectively eliminated any growth
same,growth of T. rubrum in cow horn membrane,[3]; [10],not effective in suppressing growth
same,growth of C. albicans in cow horn membrane,[4]; with irradiation at 519 nm,effectively eliminated any growth
same,growth of C. albicans in cow horn membrane,[4]; without irradiation,not effective in suppressing growth
O=C1C=C(c2ccccc2)C(=O)c2c(O)ccc(O)c21 [BJ-39],IC50,[6]; [12],2.9 nM
O=C1C=C(Nc2ccccc2)C(=O)c2c(O)ccc(O)c21 [BJ-49],IC50,[5]; [11],570 nM
same,IC50,[6]; [12],352 ± 150 nM
CN(C)C1=CC(=O)c2c(O)ccc(O)c2C1=O [BJ-SK-Amin],IC50,[5]; [11],1480 nM
same,IC50,[6]; [12],3340 nM
same,IC50,[7],8140 nM
"CC(C)=CCCC1=CC(=O)c2c(O)ccc(O)c2C1=O [DOS, Deoxyshikonin]",IC50,[5]; [13],213 ± 54.7 nM
same,IC50,[5]; [14],213 ± 55 nM
same,IC50,[6]; [12],32.2 ± 17.4 nM
same,depth of migration into the keratin cross-section,[2]; [8],more than 50 µm
same,growth of T. rubrum in cow horn membrane,[3]; [9],effectively suppressed growth of T. rubrum
same,growth of T. rubrum in cow horn membrane,[3]; [10],reduced compared to both controls but not suppressed
O=C1C=CC(=O)c2c(O)ccc(O)c21 [Naphthazarin],IC50,"[5]; Candida albicans, DSM1386, light or radiation study, read-out: Ca IC50 with irradiation",632 ± 175 nM
same,IC50,[6]; Trichophyton rubrum,353 ± 237 nM
"C[C@@H]1[C@H](O)[C@@H](C)/C=C/C=C/CC/C=C/C=C/C=C/C=C/C(O[C@H]2O[C@H](C)[C@@H](O)[C@H](N)[C@@H]2O)CC2O[C@](O)(CC(O)C(O)CCC(O)CC(O)CC(O)CC(=O)O[C@H]1C)CC(O)C2C(=O)O (stereo partly shown) [Nystatin, reference compound]",IC50,[5]; [14],1660 ± 886 nM
same,IC50,"[5]; antimycotic activity against Candida albicans, without irradiation (dark), read-out: Ca IC50 without irradiation",692 nM
same,activity under irradiation compared with no irradiation,"[5]; under irradiation, believed to be caused by decomposition under irradiation",lower activity under irradiation
CC(C)=CCC(O)C1=CC(=O)c2c(O)ccc(O)c2C1=O (stereo not shown) [Shikonin/ Alkannin],IC50,[5]; [13],1480 nM
same,IC50,[6]; [12],781 ± 407 nM
same,IC50,[7],10500 ± 6920 nM
CCC(C)(C)c1ccc(CC(C)CN2C[C@@H](C)O[C@@H](C)C2)cc1 (stereo partly shown) [amorolfin],depth of migration into the keratin cross-section,"[2]; commercial lacquers (amorolfin in Loceryl lacquer, ciclopirox in Ciclopoli), bovine hoof plate 2 mm, room temperature",could not be detected inside the keratin cross-section
Cc1cc(C2CCCCC2)n(O)c(=O)c1 [ciclopirox],depth of migration into the keratin cross-section,[2]; bovine,≤ 40 µm
"CN(C)c1ccc2nc3ccc(=[N+](C)C)cc-3sc2c1 [methylene blue, reference compound]",depth of migration into the keratin cross-section,"[2]; bovine, 5 wt.-%",50 µm
same,diffusion of the compound into the supporting agar,[3],diffusion of methylene blue into the supporting agar
same,growth of T. rubrum in cow horn membrane,[3]; [9],did not suppress growth
same,growth of T. rubrum in cow horn membrane,[3]; [10],did not suppress growth
same,growth of C. albicans in cow horn membrane,[4]; with irradiation at 519 nm,did not suppress growth
same,growth of C. albicans in cow horn membrane,[4]; without irradiation,did not suppress growth
